The record followed here is patent US20120015901A1, “METHODS AND PREPARATIONS FOR PROTECTING CRITICALLY ILL PATIENTS” (priority 2009, published 2012).

Series [1] concerns chronologically aging wild type yeast cells. Kind of series: Yeast cell death and oxidative stress markers (DHE, Annexin V/PI). It counts as cell-based. The text has this: For chronological aging experiments, cultures were inoculated from fresh overnight cultures to OD600 of 0.1 (˜1·10^6 cells/ml) with culture volume being 10% of flask volume and aliquots were taken out to perform survival plating at indicated time points (Herker, at al. (2004) J. Cell Biol. 164, 501-507. Survival at day 1 of wild type control cultures was set to 100% and other samples calculated accordingly. If not otherwise indicated, representative aging experiments are shown with at least three independent samples (as indicated) aged at the same time, which have been repeated at least twice with similar outcome. In case of experiments with Δspe1 (FIG. 24 A-E), all strains were inoculated to 5·10^4 cells/ml. Upon deletion of both IKI3 and SAS3 we observed slight aggregation of cells possibly due to a defect in late budding events. Therefore, for calculation of survival rates in experiments using Δiki3Δsas3, cell numbers of each sample were determined after two pulse of sonication on ice with Sonifier 250 from Benson (Duty Cycle: 35; Output Control: 2.5). Tests for apoptotic (TUNEL and Annexin V staining) and necrotic (PI staining) markers as well as markers for oxidative stress (DHE staining) were performed as described in Dod et al. (1982) Eur J Biochem 121, 401-405). For quantifications using flow cytometry (BD FACSAria), 30,000 cells were evaluated and analyzed with BD FACSDiva software. Spermidine (S4139, Sigma, Austria) and putrescine (P5780, Sigma, Austria; 1 mM final concentration) were added to stationary cultures at day 1 of the aging experiments (24 h after inoculation). 1 M aqueous stock solution of spermidine was stored in one use aliquots at −20° C. for no longer than 1 month. For adjustment of extracellular pH (pHex) to 6 (±0.5), the required amount of sodium hydroxide was added 30 h after inoculation. […]
As a further marker for necrosis, nuclear release of the yeast HMGB1 homolog (Nhp6Ap) was monitored by epifluorescence microscopy of ectopically expressed chimeric fusion protein Nhp6Ap-EGFP. […]

In a further series the test system is C57BL/6 mice. Put plainly: Aging mice with spermidine in drinking water. The series is classed as in vivo. The source says: Male and female C57BL/6 mice were purchased from the Institut für Labortierkunde und-genetik, Himberg, Austria. All animals were used at an age between 12 and 16 weeks. All mice were kept and treated according to institutional guidelines and Austrian law and the experiments were approved by the responsible governmental commission. For each group, one male and two female mice were housed singly and fed ad libitum with regular food (pellets) and spermidine was supplemented to drinking water in concentrations of 0.3 and 3 mM for 200 days. Controls were given pure drinking water. Drinking water was replaced every 2-3 days and spermidine freshly added from 1 M aqueous stock (spermidine/HCl pH 7.4), which was kept at −20° C. for no longer than one month. […] At the end of the experiment, the animals were anesthetized by ether inhalation, and exsanguinated by heart puncture. Peripheral blood was allowed to clot for 20 min, and serum was obtained by centrifugation at 200 g for 10 min. The spleens and livers (shock frozen in liquid nitrogen and stored at −80° C. upon further use) were immediately excised. Serum was used for determination of free thiol groups by Ellmans' reaction (Ellman (1959) Arch Biochem Biophys 82, 70-77 and Riener et al. (2002) Anal Bioanal Chem 373, 266-276 (2002).) as described previously (Schraml et al. (2007) Exp Gerontol 42, 1072-1078).
Extraction of polyamines from mice liver tissue was performed according to the freeze/thaw-method described by (Minocha et al. (1994)J Plant Growth Regul 13, 187-193) with slight modifications. […]
Polyamines were determined according to the method described previously by Gianotti et al. (V. Gianotti et al. (2008) J Chromatogr A 1185, 296-300.). […]
Polyamines were detected in MRM mode using following transitions: spermidine (m/z 146->72, CE 34 eV), putrescine (m/z 89->72, CE 28 eV), bis(hexamethylene)-triamine as internal standard (m/z 216->100, CE 36 eV). […]

The test system of series [2] is chronologically aging wild type yeast cells. Put plainly: Spontaneous mutation frequency and budding index. It counts as cell-based. To be noted: spermidine-treated cultures, 4 mM. On the procedure:
Spontaneous mutation frequency was determined based on the appearance of mutants able to form colonies on agar plates containing 60 mg/l L-canavanine sulfate according to Fabrizio et al. (Fabrizio et al. (2004) J Cell Biol 166, 1055-1067). Mutation rates were calculated per 10^6 living (colony forming on YEPD) cells. Budding index was assessed by counting the percentage of budded cells after 10 seconds of sonication on ice using Sonifier 250 from Benson (Duty Cycle: 35; Output Control: 2.5) in micrographs of no more than 40 cells. For each sample, at least 500 cells were evaluated.

The next series deals with critically ill rabbits. Put plainly: Proof-of-concept outcome study, interim analysis (15 animals per group).
The mark [3] stands for this setting: spermidine treatment during chronological aging.

“Also recorded” adds a separate entry of the source.

Procedure for critically ill rabbits: Based on the pilot study, two doses of spermidine (30 and 100 mg/day) were selected to continue with.
An a priori planned interim analysis was performed after having included 15 animals per group, for selecting 1 spermidine-group to be completed next to the saline-group until 58 animals per group are included. After the interim analysis, the codes of the vials were changed, so that the proceeding of the study was again carried out blinded.
Based on the pilot study, two doses of spermidine are selected (30 and 100 mg/day) to continue with.
An interim analysis was performed after having included 15 animals per group, for selecting 1 spermidine-group that will be completed next to the saline-group until 58 animals per group are included. After the interim analysis, the codes of the vials are changed, so that the proceeding of the study is again carried out blinded.

Take `NCCCCNCCCN` [spermidine]: the “loss of membrane integrity (PI positivity and Annexin V+PI+)” value in series [1] (after 18 days of aging, 50% without spermidine) is given as “less than 10%”. In series [1] (setting [3]), the “externalization of phosphatidylserine (Annexin V+PI− cells), early apoptotic marker” value is recorded as “remained largely unaltered”; the “markers of necrosis and oxidative stress (DHE positivity)” value is “drastically diminished”. Further, the “increase of serum level of free thiol groups” value in the series on C57BL/6 mice (3 mM spermidine in drinking water for 200 days) is approximately 30%. In the series on C57BL/6 mice (0.3 and 3 mM in drinking water, 200 days (data not shown)), the “food and body weight” value is recorded as “remained unaffected”. In the series on C57BL/6 mice (spermidine in drinking water, 200 days), the “intracellular spermidine levels in liver cells” value is reported as “significantly increased”. Also, the “mutation frequency and budding index” value in series [2] is given as “neither associated with an increased mutation frequency nor a higher budding index”. Moreover, in the series with critically ill rabbits (7 days after injury, 30 and 100 mg/day, both doses equal, placebo >50%), the mortality result is given as “about one third; also recorded: much lower”. Besides, the “rise in renal p62 levels (autophagic flux marker)” value in the series on critically ill rabbits (kidney, compared to saline-treated animals) is listed as “attenuated”. The plasma spermidine concentration result in the series with critically ill rabbits (spermidine 30 mg/d or 100 mg/d) was “maintain or increase the plasma spermidine concentration to similar (supra)physiological levels”. Besides, the “number of animals that developed a more than 3-fold rise in normal urea levels” value in the series on critically ill rabbits (spermidine-treated animals, saline 18.8%, P 0.0461) is listed as 2.8%. Besides, the “number of animals that developed a more than 3-fold rise in normal creatinine levels” value in the series on critically ill rabbits (spermidine-treated animals, saline 25%, P 0.0161) turned out to be 2.8%.
